From the supplement of paper PMC11003180

Assays:
Test in all cases: drug sensitivity score (DSS) from 5-dose viability curve (DSS (area-based score, 0 = no response)); higher = more sensitive (stronger viability inhibition); extreme values may be limits of the assay
[1] = tested on: MDCK p60AmotL2-inducible + doxycycline (p60AmotL2 expressing); details: doxycycline: 10 ng/mL; 72 h
Summary of the method: (§1)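 Parental MDCK cells and MDCK cells with doxycycline-inducible p60AmotL2, both given doxycycline at 10 ng/mL in the medium before plating, were dispensed at 2000 cells/well onto pre-spotted 384-well plates. The plates held an oncology library of 528 drugs at five doses (1-10,000 nM) and were incubated 72 h at 37 °C. Viability was read as CellTiter-Glo luminescence and scaled per plate between vehicle and positive controls. Drug sensitivity scores came from dose-response curve fits in the Breeze pipeline.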

[2] = tested on: MDCK wild-type + doxycycline; details: doxycycline: 10 ng/mL; 72 h
Summary of the method: as §1

[3] = tested on: MDCK wild-type - doxycycline; details: doxycycline: none; 72 h
Summary of the method: as §1, with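 “without” for “and MDCK cells with doxycycline-inducible p60AmotL2, both given”, “doxycycline” for “doxycycline at 10 ng/mL in the medium before plating,”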

Row | Compound | drug sensitivity score [1] | drug sensitivity score [2] | drug sensitivity score [3]
1 | CCS(=O)(=O)Nc1ccc(Oc2ccc(F)cc2F)c(-c2cn(C)c(=O)c3[nH]ccc23)c1 [Mivebresib] | 29.9 | 23.8 | 18.7
2 | O=c1[nH]c(=O)n([C@H]2C[C@H](O)[C@@H](CO)O2)cc1F [Floxuridine] | 22.7 | 21.7 | 18.2
3 | C[C@@H]1COCCN1c1cc(C2([S@](C)(=N)=O)CC2)nc(-c2cc[nH]c3nccc2-3)n1 [AZD6738] | 6.7 | 3.4 | 1.3
4 | Cc1cc(F)c(C(=O)Nc2cccc(-c3nncn3C(C)C)n2)cc1-n1cnc(C2CC2)c1 [Selonsertib] | 0 | 0 | 0
5 | CN(C(=O)c1ccc(F)cc1C(F)(F)F)C1CCN(c2nnc(-c3ccnn3C)c3ccccc23)CC1 [Taladegib] | 0 | 0 | 0
6 | COc1cc2nccc(Oc3ccc(NC(=O)Nc4cc(C)on4)c(Cl)c3)c2cc1OC [Tivozanib] | 4.4 | 8.2 | 2.5
7 | CC(C)Cn1cnc2c(N)nc3ccccc3c21 [Imiquimod] | 0.3 | 0 | 0
8 | O=C(Nc1ccc2[nH]nc(-c3ccncc3)c2c1)[C@@H]1CCN(CC(=O)N2CCN(c3ccc(-c4ncccn4)cc3)CC2)C1 | 10.7 | 6.7 | 3.5
9 | CCOC(=O)C1=CCCC[C@H]1S(=O)(=O)Nc1ccc(F)cc1Cl [Resatorvid] | 0 | 0 | 0
10 | COc1ccc(-c2ccc3ncc4c(c3c2)n(-c2ccc(N3CCNCC3)c(C(F)(F)F)c2)c(=O)n4C)cn1 [NVP-BGT226] | 18.9 | 13.5 | 11.8
11 | CCc1cncnc1N1CCN(Cc2nc3ccc(C(F)(F)F)cc3[nH]2)CC1 | 0 | 0 | 0
12 | Nc1cccc2c1C(=O)N(C1CCC(=O)NC1=O)C2=O (configuration not stated) [Pomalidomide] | 0 | 0 | 0
13 | Cn1ncc(Cl)c1-c1cc(C(=O)N[C@H](CN)Cc2cccc(F)c2)sc1Cl [Afuresertib] | 0 | 0 | 0
14 | CCCCCOC(=O)Nc1nc(=O)n([C@@H]2O[C@H](C)[C@@H](O)[C@H]2O)cc1F [Capecitabine] | 7.1 | 7 | 5.1
15 | CC(C)(C#N)c1cc(Cn2cncn2)cc(C(C)(C)C#N)c1 [Anastrozole] | 0 | 0 | 0
16 | O=C(O)CCCCC(CCSCc1ccccc1)SCc1ccccc1 (configuration not stated) [CPI-613] | 0 | 0 | 0
17 | COc1cccc2c1c(O)c(C(=O)N(C)c1ccc(C(F)(F)F)cc1)c(=O)n2C [Tasquinimod] | 0 | 0 | 0
18 | CC(=O)O[C@]1(C(C)=O)CC[C@H]2[C@@H]3C=C(C)C4=CC(=O)CC[C@]4(C)[C@H]3CC[C@@]21C [Megestrol acetate] | 0 | 0 | 0
19 | C[C@H]1O[C@@H](O[C@H]2[C@@H](O)C[C@H](O[C@H]3[C@@H](O)C[C@H](O[C@H]4CC[C@@]5(C)[C@H](CC[C@@H]6[C@@H]5C[C@@H](O)[C@]5(C)[C@@H](C7=CC(=O)OC7)CC[C@]65O)C4)O[C@@H]3C)O[C@@H]2C)C[C@H](O)[C@@H]1O [Digoxin] | 5.3 | 11.2 | 6
20 | N[C@@H]1CCCN(c2c(/C=C3\SC(=O)NC3=O)cccc2-c2ccccc2)C1 [AZD1208] | 1 | 0 | 0
21 | COc1cc2c(N3CCN(C(=O)Nc4ccc(OC(C)C)cc4)CC3)ncnc2cc1OCCCN1CCCCC1 [Tandutinib] | 0 | 0 | 0
22 | Cc1nc(-c2cn3c(n2)-c2ccc(-c4cnn(C(C)(C)C(N)=O)c4)cc2OCC3)n(C(C)C)n1 [Taselisib] | 6.3 | 0.3 | 0

Row | Compound | drug sensitivity score [1] | drug sensitivity score [2] | drug sensitivity score [3]
23 | CNC(=O)c1ccc(C)c(-n2c(C)cc(OCc3ccc(F)cc3F)c(Br)c2=O)c1 | 0 | 0 | 0
24 | CC(C)C[C@H](NC(=O)[C@H](CCc1ccccc1)NC(=O)CN1CCOCC1)C(=O)N[C@@H](Cc1ccccc1)C(=O)N[C@@H](CC(C)C)C(=O)[C@@]1(C)CO1 [Carfilzomib] | 25.7 | 24.6 | 21.2
25 | Oc1ncnc2[nH]ncc12 [Allopurinol] | 0 | 0 | 0
26 | CC[C@@H]1C(=O)OC[C@@H]1Cc1cncn1C [Pilocarpine] | 0 | 0 | 0
27 | CN(C)C(=O)c1ccc(S(=O)(=O)c2ccc(NC(=O)[C@@](C)(O)C(F)(F)F)c(Cl)c2)cc1 [AZD7545] | 0 | 0 | 0
28 | C1=N/C2=N/c3ccc(OCCN4CCCC4)c(c3)COC/C=C/COCc3cccc(c3)C(=C1)N2 [Pacritinib] | 10 | 9.3 | 10.1
29 | CC(C)Nc1cc(-c2c[nH]c(C(=O)N[C@H](CO)c3cccc(Cl)c3)c2)c(Cl)cn1 [Ulixertinib] | 9.6 | 4.9 | 3.2
30 | CCc1c(C(=O)C(N)=O)c2c(OCC(=O)O)cccc2n1Cc1ccccc1 [Varespladib] | 0 | 0 | 0
31 | COc1nc(N)nc2c1ncn2[C@@H]1O[C@H](CO)[C@@H](O)[C@@H]1O [Nelarabine] | 0 | 0 | 0
32 | Cc1c(N)nc([C@H](CC(N)=O)NC[C@H](N)C(N)=O)nc1C(=O)N[C@H](C(=O)N[C@H](C)[C@@H](O)[C@H](C)C(=O)N[C@H](C(=O)NCCc1nc(-c2nc(C(=O)NCCC[S+](C)C)cs2)cs1)[C@@H](C)O)[C@@H](OC1OC(CO)C(O)C(O)C1OC1OC(CO)C(O)C(OC(N)=O)C1O)c1cnc[nH]1 (some centres not stated) [Bleomycin] | 0.6 | 0 | 0
33 | O=C1Cc2cc(C(=O)NC3C[C@H]4CC[C@@H](C3)N4S(=O)(=O)CC3CCN(CCCC(F)(F)F)CC3)c(Cl)cc2N1 (some centres not stated) | 0 | 0 | 0
34 | CC(=O)[C@]1(O)Cc2c(O)c3c(c(O)c2[C@@H](O[C@H]2C[C@H](N)[C@H](O)[C@H](C)O2)C1)C(=O)c1ccccc1C3=O [Idarubicin] | 19 | 13.9 | 16.6
35 | Cn1cnc2c(F)c(Nc3ccc(Br)cc3Cl)c(C(=O)NOCCO)cc21 [Selumetinib] | 10.1 | 4.1 | 0.9
36 | Nc1ncn([C@H]2C[C@H](O)[C@@H](CO)O2)c(=O)n1 [Decitabine] | 0.6 | 0 | 1.1
37 | CN(C)CCOc1ccc(/C(=C(/CCCl)c2ccccc2)c2ccccc2)cc1 [Toremifene] | 4.6 | 3.6 | 0
38 | CN1CCC(COc2cnc(-c3cccc(Cn4nc(-c5cccc(C#N)c5)ccc4=O)c3)nc2)CC1 [Tepotinib] | 0.1 | 0 | 0
39 | CCc1cnn2c(NCc3ccc[n+]([O-])c3)cc(N3CCCC[C@H]3CCO)nc12 [Dinaciclib] | 16.3 | 17 | 18.3
40 | CCNc1nc(Nc2cc(F)c(C(=O)N3CCOCC3)cc2OC)ncc1C(F)(F)F [GNE-7915] | 0 | 0 | 0
41 | COc1cc2c(Oc3ccc(NC(=O)C4(C(=O)Nc5ccc(F)cc5)CC4)cc3F)ccnc2cc1OCCCN1CCOCC1 [Foretinib] | 2.8 | 1.2 | 0
42 | Cc1[nH]c2ccccc2c1CCNCc1ccc(/C=C/C(=O)NO)cc1 [Panobinostat] | 15 | 12.5 | 15.2
43 | C=CCn1c(=O)c2cnc(Nc3ccc(N4CCN(C)CC4)cc3)nc2n1-c1cccc(C(C)(C)O)n1 [AZD1775] | 12.9 | 15.9 | 12.1
44 | O=C(O)c1ccc2c(c1)nc(Nc1cccc(Cl)c1)c1ccncc12 [Silmitasertib] | 1.6 | 1.4 | 0
